Measured values as given in patent US12582657B2, “Combination therapy including a KRAS G12C inhibitor and one or more additional pharmaceutically active agents for the treatment of cancers” (Amgen Inc., priority 2018, dated 2026).
Like-named read-outs stand apart in the source and are kept apart here.

What was measured:
[1] = Plasma and tumor concentrations of AMG 510 (LC-MS/MS); type: in vivo, mouse; details: tumor-bearing mice; single oral dose 10 mg/kg
Protocol: Tumor tissue homogenates were prepared by adding water to tissue (4:1 mL:g) using tungsten carbide beads in a TissueLyzer (Qiagen). To 20 μL of sample (plasma or tumor tissue homogenate), 100 μL acetonitrile containing IS (200 ng/mL tolbutamide) was added, the sample was vortexed for 10 min, centrifuged at 3500 g for 10 min, and 90 μL of supernatant was collected. To the collected supernatant 100 μL of water (containing 0.1% formic acid) was added, and 5 μL of the resulting solution was injected onto the LC-MS/MS system. Chromatographic separations were achieved using a Phenomenex Kinetex C18 50×2.1 mm, 2.7 μm, maintained at 50° C., using 0.1% formic acid in H2O (mobile phase A) and 0.1% formic acid in acetonitrile (mobile phase B). […] Peak areas were integrated using Analyst® (Sciex).

physchem = details: 5 mM glutathione
SW1573 cells = test: Spheroid cell viability assay (CellTiter-Glo 3D); type: cell-based; details: Homo sapiens; SW1573, lung, KRAS p.G12C homozygous; 72-hour treatment, spheroid culture
Protocol: (§1) For spheroid viability assays, 2.5-4.0E+04 cells were seeded per well in 96-well spheroid microplates (Corning) and incubated at 37° C., 5% CO2 for 24 hours. The same procedure was followed as described above, except viability was measured using a CellTiter-Glo® 3D Cell Viability Assay kit (Promega) according to the manufacturer's protocol.

NCI-H358 cells = test: Spheroid cell viability assay (CellTiter-Glo 3D); type: cell-based; details: Homo sapiens; NCI-H358, lung, KRAS p.G12C heterozygous; 72-hour treatment, spheroid culture
Protocol: as §1

NCI-H2122 cells = test: Spheroid cell viability assay (CellTiter-Glo 3D); type: cell-based; details: Homo sapiens; NCI-H2122, lung, KRAS p.G12C homozygous; 72-hour treatment, spheroid culture
Protocol: as §1

NCI-H1373 cells = test: Spheroid cell viability assay (CellTiter-Glo 3D); type: cell-based; details: Homo sapiens; NCI-H1373, lung, KRAS p.G12C homozygous; 72-hour treatment, spheroid culture
Protocol: as §1

MIA PaCa-2 cells = test: Spheroid cell viability assay (CellTiter-Glo 3D); type: cell-based; details: Homo sapiens; MIA PaCa-2, pancreas, KRAS p.G12C homozygous; 72-hour treatment, spheroid culture
Protocol: as §1

[2] = tested on: KRASp.G12V (SW480-1AC) tumor xenografts; test: Tumor xenograft efficacy study; type: in vivo, mouse
[3] = tested on: ERK1/2 phosphorylation in SW1573 cells; test: Basal ERK1/2 phosphorylation assay (MSD); type: cell-based; details: Homo sapiens; SW1573, lung, KRAS p.G12C homozygous; 2-hour treatment
Protocol: (§2) For cellular assays, 2.5E+04 cells were seeded per well in 96-well plates and incubated at 37° C., 5% CO2, o/n. The following day, 3-fold serially-diluted compound or DMSO was added to the cells, and the plates were incubated at 37° C., 5% CO2 for 2 hours. […] Signal intensity corresponded with phospho-ERK1/2 levels and was normalized DMSO control.

[4] = tested on: ERK1/2 phosphorylation in KM12 cells; test: Basal ERK1/2 phosphorylation assay (MSD); type: cell-based; details: Homo sapiens; KM12, colon, KRAS WT TPM3-NTRK fusion; 2-hour treatment; read-out: Basal p-ERK1/2 IC50
Protocol: as §2

[5] = tested on: ERK1/2 phosphorylation in NCI-H2030 cells; test: Basal ERK1/2 phosphorylation assay (MSD); type: cell-based; details: Homo sapiens; NCI-H2030, lung, KRAS p.G12C homozygous; 2-hour treatment
Protocol: as §2

[6] = tested on: ERK1/2 phosphorylation in LS 174T cells; test: Basal ERK1/2 phosphorylation assay (MSD); type: cell-based; details: Homo sapiens, LS174T, colon, KRAS p.G12D heterozygous, 2-hour treatment
Protocol: as §2

[7] = tested on: ERK1/2 phosphorylation in NCI-H1355 cells; test: Basal ERK1/2 phosphorylation assay (MSD); type: cell-based; details: Homo sapiens; NCI-H1355, lung, KRAS p.G13C heterozygous; 2-hour treatment
Protocol: as §2

[8] = tested on: ERK1/2 phosphorylation in NCI-H2122 cells; test: Basal ERK1/2 phosphorylation assay (MSD); type: cell-based; details: Homo sapiens; NCI-H2122, lung, KRAS p.G12C homozygous; 2-hour treatment
Protocol: as §2

[9] = tested on: ERK1/2 phosphorylation in A-427 cells; test: Basal ERK1/2 phosphorylation assay (MSD); type: cell-based; details: Homo sapiens; A-427, lung, KRAS p.G12D heterozygous; 2-hour treatment
Protocol: as §2

[10] = tested on: ERK1/2 phosphorylation in AsPC-1 cells; test: Basal ERK1/2 phosphorylation assay (MSD); type: cell-based; details: Homo sapiens, ASPC1; AsPC-1, pancreas, KRAS p.G12D homozygous; 2-hour treatment
Protocol: as §2

[11] = tested on: ERK1/2 phosphorylation in SW837 cells; test: Basal ERK1/2 phosphorylation assay (MSD); type: cell-based; details: Homo sapiens; SW837, colon, KRAS p.G12C heterozygous; 2-hour treatment
Protocol: as §2

[12] = tested on: ERK1/2 phosphorylation in SW480 cells; test: Basal ERK1/2 phosphorylation assay (MSD); type: cell-based; details: Homo sapiens; SW480, colon, KRAS p.G12V homozygous; 2-hour treatment
Protocol: as §2

[13] = tested on: ERK1/2 phosphorylation in NCI-H1322 cells; test: Basal ERK1/2 phosphorylation assay (MSD); type: cell-based; details: Homo sapiens, 2 h, read-out: Basal p-ERK1/2 IC50
Protocol: as §2

[14] = tested on: ERK1/2 phosphorylation in MIA PaCa-2 cells; test: Basal ERK1/2 phosphorylation assay (MSD); type: cell-based; details: Homo sapiens, 2-hour treatment
Protocol: as §2

[15] = tested on: ERK1/2 phosphorylation in Calu-1 cells; test: Basal ERK1/2 phosphorylation assay (MSD); type: cell-based; details: Homo sapiens; Calu-1, lung, KRAS p.G12C heterozygous; 2-hour treatment
Protocol: as §2

[16] = tested on: ERK1/2 phosphorylation in HCC-827 cells; test: Basal ERK1/2 phosphorylation assay (MSD); type: cell-based; details: Homo sapiens, HCC827; HCC-827, lung, KRAS WT EGFR p.E746_A750del; 2-hour treatment
Protocol: as §2

[17] = tested on: ERK1/2 phosphorylation in NCI-H358 cells; test: Basal ERK1/2 phosphorylation assay (MSD); type: cell-based; details: Homo sapiens
Protocol: as §2

In the case of `C=CC(=O)N1CCN(c2nc(=O)n(-c3c(C)ccnc3C(C)C)c3nc(-c4c(O)cccc4F)c(F)cc23)[C@@H](C)C1` (atropisomer, axis not shown) [AMG 510, 6-fluoro-7-(2-fluoro-6-hydroxyphenyl)-1-(4-methyl-2-(2-propanyl)-3-pyridinyl)-4-((2S)-2-methyl-4-(2-propenoyl)-1-piperazinyl)pyrido[2,3-d]pyrimidin-2(1H)-one], the “time of peak plasma and tumor exposure” value [1] is reported as 0.5 h, the half-life (physchem) is reported as 3.27 h and the IC50 (SW1573 cells) is reported as over 10000 nM. For the same molecule, the IC50 (NCI-H358 cells) was 3 ± 2 nM, the IC50 (NCI-H2122 cells) was 9 ± 2 nM and the IC50 (NCI-H1373 cells) was 5 ± 2 nM. For the same molecule, the IC50 (MIA PaCa-2 cells) was 1 ± 1 nM, the “tumor growth” value [2] was “no effect” and the IC50 [3] was 27 ± 1 nM. For the same molecule, the IC50 [4] was over 10000 nM, the IC50 [5] was 40 ± 20 nM and the IC50 [6] was over 10000 nM. The IC50 [7] was over 10000 nM, the IC50 [8] was 123 ± 6 nM and the IC50 [9] was over 10000 nM. It also gave an IC50 [10] of over 10000 nM, an IC50 [11] of 18 ± 2 nM and an IC50 [12] of over 10000 nM. The IC50 [13] was over 10000 nM, the IC50 ([14]; second of two KRASp.G12C cell lines (FIG. 40E: MIA PaCa-2), read-out: p-ERK IC50) was about 30 nM and the IC50 ([14]; MIA PaCa-2, pancreas, KRAS p.G12C homozygous, read-out: Basal p-ERK1/2 IC50) was 36 ± 2 nM. For the same molecule, the IC50 [15] was 13 ± 4 nM, the IC50 [16] was over 10000 nM and the IC50 ([17]; NCI-H358, 2 h, read-out: p-ERK IC50) was about 20 nM. For the same molecule, the IC50 ([17]; NCI-H358, lung, KRAS p.G12C heterozygous, 2-hour treatment, read-out: Basal p-ERK1/2 IC50) was 35 ± 3 nM.
